Experimental findings from BindingDB's records for patent US9212173 (Genentech, 2015) are described below.

pKi: −log10 of the molar value.

The term pKi denotes −log10 of the Ki, conventionally taken in molar units.

The assay concerns the target Leucine-rich repeat serine/threonine-protein kinase 2 (Homo sapiens, UniProt Q5S007). The assay is described as follows: Lanthascreen Binding Assay. The method, then:
This assay was used to determine a compound's potency in inhibiting activity of LRRK2 by determining, Kiapp, IC50, or percent inhibition values. In 384 well proxiplates F black, shallow well plates LRRK2, Eu-anti-GST-antibody, Alexa Fluor Kinase tracer 236 and test compound were incubated together.Binding of the Alexa Fluor tracer to a kinase is detected by addition of a Eu-labeled anti-GST antibody. Binding of the tracer and antibody to a kinase results in a high degree of FRET, whereas displacement of the tracer with a kinase inhibitor results in a loss of FRET. Assay conditions and materials used were as follows: Final Assay Conditions: GST-LRRK2 G2019S 10 nM Eu-anti-GST-antibody 2 nM Kinase tracer 236 8.5 nM Kinase reaction time: 1 hour Temperature: ambient Total volume: 15 ul DMSO 1% Materials: 384 well proxiplates F black shallow cat# 6008260 well Perkin Elmer Kinase: LRRK2 G2019S, Invitrogen cat # PV4882(LOT 567054A).

Sequence of Leucine-rich repeat serine/threonine-protein kinase 2 (Q5S007 whole entry): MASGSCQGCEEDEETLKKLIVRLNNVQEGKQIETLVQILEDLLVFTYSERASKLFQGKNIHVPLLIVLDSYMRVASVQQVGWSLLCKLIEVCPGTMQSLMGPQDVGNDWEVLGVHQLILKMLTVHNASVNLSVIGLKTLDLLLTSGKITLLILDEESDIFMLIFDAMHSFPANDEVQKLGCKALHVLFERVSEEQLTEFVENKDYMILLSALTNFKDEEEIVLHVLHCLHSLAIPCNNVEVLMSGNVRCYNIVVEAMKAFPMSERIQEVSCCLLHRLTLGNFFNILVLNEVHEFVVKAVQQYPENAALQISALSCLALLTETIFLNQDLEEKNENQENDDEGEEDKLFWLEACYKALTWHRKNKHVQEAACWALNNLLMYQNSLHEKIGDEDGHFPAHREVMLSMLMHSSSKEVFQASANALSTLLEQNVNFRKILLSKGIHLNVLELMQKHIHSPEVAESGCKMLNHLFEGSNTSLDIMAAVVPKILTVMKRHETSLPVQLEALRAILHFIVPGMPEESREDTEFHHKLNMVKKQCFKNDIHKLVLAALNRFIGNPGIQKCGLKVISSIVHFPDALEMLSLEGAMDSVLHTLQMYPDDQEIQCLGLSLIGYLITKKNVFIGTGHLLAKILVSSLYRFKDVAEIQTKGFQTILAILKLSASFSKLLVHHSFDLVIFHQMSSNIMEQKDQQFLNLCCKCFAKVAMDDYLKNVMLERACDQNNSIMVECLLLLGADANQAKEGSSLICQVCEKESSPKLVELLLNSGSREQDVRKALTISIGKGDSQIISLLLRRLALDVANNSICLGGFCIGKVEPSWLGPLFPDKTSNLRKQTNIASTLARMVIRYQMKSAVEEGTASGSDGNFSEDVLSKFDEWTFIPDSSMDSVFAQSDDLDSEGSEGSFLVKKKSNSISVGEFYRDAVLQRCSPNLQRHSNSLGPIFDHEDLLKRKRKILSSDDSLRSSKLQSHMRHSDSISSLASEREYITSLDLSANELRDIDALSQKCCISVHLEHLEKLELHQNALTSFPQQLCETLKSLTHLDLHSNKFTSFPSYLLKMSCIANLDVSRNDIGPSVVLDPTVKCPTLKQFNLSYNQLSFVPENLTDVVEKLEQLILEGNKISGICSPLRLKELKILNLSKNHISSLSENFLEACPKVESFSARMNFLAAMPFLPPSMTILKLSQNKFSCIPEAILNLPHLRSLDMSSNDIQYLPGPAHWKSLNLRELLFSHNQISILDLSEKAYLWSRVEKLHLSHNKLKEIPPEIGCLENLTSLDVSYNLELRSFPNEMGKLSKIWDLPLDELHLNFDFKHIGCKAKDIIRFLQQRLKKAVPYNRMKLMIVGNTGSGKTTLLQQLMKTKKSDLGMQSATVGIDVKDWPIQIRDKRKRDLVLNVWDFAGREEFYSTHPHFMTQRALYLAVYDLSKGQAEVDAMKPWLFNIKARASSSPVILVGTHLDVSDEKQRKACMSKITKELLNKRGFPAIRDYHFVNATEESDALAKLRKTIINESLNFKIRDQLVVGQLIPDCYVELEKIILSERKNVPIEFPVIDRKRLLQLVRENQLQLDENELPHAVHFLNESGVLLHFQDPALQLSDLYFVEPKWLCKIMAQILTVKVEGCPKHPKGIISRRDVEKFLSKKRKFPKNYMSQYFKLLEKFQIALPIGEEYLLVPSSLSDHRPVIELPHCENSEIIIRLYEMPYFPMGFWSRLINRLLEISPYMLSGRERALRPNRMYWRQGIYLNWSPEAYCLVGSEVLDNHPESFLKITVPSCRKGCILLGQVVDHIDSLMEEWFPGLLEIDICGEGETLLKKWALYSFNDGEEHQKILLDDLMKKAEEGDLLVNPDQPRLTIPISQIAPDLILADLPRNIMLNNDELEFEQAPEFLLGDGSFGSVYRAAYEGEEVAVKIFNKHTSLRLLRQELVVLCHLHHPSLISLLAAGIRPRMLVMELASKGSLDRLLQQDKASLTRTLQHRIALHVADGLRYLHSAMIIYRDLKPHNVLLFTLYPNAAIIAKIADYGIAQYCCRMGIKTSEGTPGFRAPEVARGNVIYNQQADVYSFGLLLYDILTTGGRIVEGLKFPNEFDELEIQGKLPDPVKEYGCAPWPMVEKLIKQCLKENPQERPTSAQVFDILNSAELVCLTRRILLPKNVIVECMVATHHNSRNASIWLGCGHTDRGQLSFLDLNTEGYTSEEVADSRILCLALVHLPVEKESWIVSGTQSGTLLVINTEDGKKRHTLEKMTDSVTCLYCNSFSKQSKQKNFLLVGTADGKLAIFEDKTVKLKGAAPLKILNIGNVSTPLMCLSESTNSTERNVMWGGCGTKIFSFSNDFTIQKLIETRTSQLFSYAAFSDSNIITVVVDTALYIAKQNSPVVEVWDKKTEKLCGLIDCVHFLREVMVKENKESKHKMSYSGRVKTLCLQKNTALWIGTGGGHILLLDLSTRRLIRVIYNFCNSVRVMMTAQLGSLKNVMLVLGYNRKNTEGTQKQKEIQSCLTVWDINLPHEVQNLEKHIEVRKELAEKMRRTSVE

In the case of `CCNc1nc(Nc2cn(C(C)(C)c3ncn(CC)n3)nc2Cl)ncc1C(F)(F)F` [US9212173, 14], the pKi is 8.96. The figure for `CCn1cnnc1C(C)(C)n1cc(Nc2ncc(C(F)(F)F)c(NC)n2)c(Cl)n1` [US9212173, 11] is 6.81.
